From patent US11814367B2, “Inhibitors of glycogen synthase 1 (GYS1) and methods of use thereof” (Maze Therapeutics, Inc., priority 2021, dated 2023)

Assays:
[1] = tested on: hGYS1 enzyme / glycogen synthesis in HeLa cells; assay: GYS1 cell based assay (glycogen synthesis, Glucose-glo); set-up: species or system human; settings: Homo sapiens, 24 h incubation, 20 mM glucose, geometric mean of at least 2 runs
Summary of the method: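 HeLa cells starved 24 h in medium containing only 1× Glutamax were plated onto compound in medium with 20 mM glucose (1% DMSO final) for 24 h, 37 °C, 5% CO2. Acid lysates were Tris-quenched, glucoamylase-digested (pH 5.3, 1 h, 37 °C) and read by Glucose-glo luminescence. IC50 came from Hill fits, as geometric mean of ≥2 runs.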

[2] = target: hGYS1 enzyme (recombinant hGYS1/GN1 protein) (Homo sapiens (Human), UniProt P13807); assay: GYS1 coupled enzyme assay (PK/LDH); format: biochemical; settings: hGYS1/GN1 50 nM, UDP-Glucose 0.8 mM, G6P 1 mM; geometric mean of at least 2 runs
Chain of hGYS1 enzyme (recombinant hGYS1/GN1 protein) (P13807 whole entry): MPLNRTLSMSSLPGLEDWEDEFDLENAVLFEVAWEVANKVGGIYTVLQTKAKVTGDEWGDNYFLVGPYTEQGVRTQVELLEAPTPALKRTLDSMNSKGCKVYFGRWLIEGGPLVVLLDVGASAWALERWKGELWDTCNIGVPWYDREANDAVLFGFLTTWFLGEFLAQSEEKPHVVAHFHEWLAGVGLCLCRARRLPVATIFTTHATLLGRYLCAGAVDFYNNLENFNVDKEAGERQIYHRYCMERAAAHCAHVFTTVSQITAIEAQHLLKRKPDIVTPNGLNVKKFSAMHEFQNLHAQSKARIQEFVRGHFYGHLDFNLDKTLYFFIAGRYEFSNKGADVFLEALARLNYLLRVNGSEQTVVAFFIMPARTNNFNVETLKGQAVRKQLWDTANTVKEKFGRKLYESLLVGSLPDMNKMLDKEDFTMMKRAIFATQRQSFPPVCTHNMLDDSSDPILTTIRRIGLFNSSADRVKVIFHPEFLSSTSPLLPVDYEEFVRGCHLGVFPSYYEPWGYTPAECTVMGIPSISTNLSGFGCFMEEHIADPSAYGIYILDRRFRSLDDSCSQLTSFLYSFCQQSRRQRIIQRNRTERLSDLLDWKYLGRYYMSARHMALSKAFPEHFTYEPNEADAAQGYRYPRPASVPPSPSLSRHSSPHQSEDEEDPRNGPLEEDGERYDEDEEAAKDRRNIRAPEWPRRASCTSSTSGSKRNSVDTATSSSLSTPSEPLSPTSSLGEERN
Chain of hGYS1 enzyme (recombinant hGYS1/GN1 protein) (P46976 whole entry partner): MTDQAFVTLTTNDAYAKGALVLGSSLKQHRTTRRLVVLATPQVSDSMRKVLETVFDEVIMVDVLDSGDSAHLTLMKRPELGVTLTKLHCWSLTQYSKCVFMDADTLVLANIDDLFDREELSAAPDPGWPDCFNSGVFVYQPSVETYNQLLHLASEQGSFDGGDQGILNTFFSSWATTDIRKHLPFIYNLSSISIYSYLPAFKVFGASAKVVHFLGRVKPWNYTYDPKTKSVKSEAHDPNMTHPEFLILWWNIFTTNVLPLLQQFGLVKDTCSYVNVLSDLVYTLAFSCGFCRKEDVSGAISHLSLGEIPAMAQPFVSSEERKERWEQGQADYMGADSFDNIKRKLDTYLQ

Question: With `O=C(N[C@H](c1ccccc1)c1ccc(C2CC(F)(F)C2)c(F)c1)[C@@H]1C[C@@H](F)CN1C(=O)CNC(=O)N1CCC1` [Compound 545, (2S,4R)-1-((azetidine-1-carbonyl)glycyl)-N—((R)-(4-(3,3-difluorocyclobutyl)-3-fluorophenyl)(phenyl)methyl)-4-fluoropyrrolidine-2-carboxamide] as the compound, how does the IC50 ([1]; HeLa, 24 h) read?
Answer: The IC50 was over 30000 nM.

Question: What about the IC50 [2] of the same compound?
Answer: Its IC50 is 1680 nM.

Question: Which IC50 ([1]; HeLa, 24 h) does the source give for `O=C(N[C@@H](c1ccccc1)c1ccc(C2CC(F)(F)C2)c(F)c1)[C@@H]1C[C@@H](F)CN1C(=O)Cc1nc(C(F)(F)F)co1` [Compound 555, (2S,4R)-N-[(S)-[4-(3,3-difluorocyclobutyl)-3-fluorophenyl](phenyl)methyl]-4-fluoro-1-{2-[4-(trifluoromethyl)-1,3-oxazol-2-yl]acetyl}pyrrolidine-2-carboxamide] here?
Answer: Its IC50 is 660 nM.

Question: And the IC50 [2]?
Answer: Its IC50 is 97 nM.

Question: With `Cc1cn(CC(=O)N2C[C@H](F)C[C@H]2C(=O)N[C@H](c2ccccc2)c2ccc(C3(C)CC3)c(F)c2)c(=O)[nH]c1=O` [Compound 557, (2S,4R)-4-fluoro-N—((R)-(3-fluoro-4-(1-methylcyclopropyl)phenyl)(phenyl)methyl)-1-(2-(5-methyl-2,4-dioxo-3,4-dihydropyrimidin-1(2H)-yl)acetyl)pyrrolidine-2-carboxamide] as the compound, how does the IC50 ([1]; HeLa, 24 h) read?
Answer: The IC50 was 5780 nM.

Question: And the IC50 [2]?
Answer: The IC50 was 424 nM.

Question: For `CC1(c2ccc([C@@H](NC(=O)[C@@H]3C[C@@H](F)CN3C(=O)Cc3cnn[nH]3)c3cccnc3)cc2F)CC1` [Compound 559, (2S,4R)-4-fluoro-N-[(R)-[3-fluoro-4-(1-methylcyclopropyl)phenyl](pyridin-3-yl)methyl]-1-[2-(1H-1,2,3-triazol-5-yl)acetyl]pyrrolidine-2-carboxamide], which IC50 ([1]; HeLa, 24 h) is on record?
Answer: Its IC50 is over 22100 nM.

Question: And the IC50 [2]?
Answer: The IC50 was 1580 nM.

Question: How did the IC50 ([1]; HeLa, 24 h) turn out when `CC1(c2ccc([C@@H](NC(=O)[C@@H]3C[C@@H](F)CN3C(=O)Cc3cc4ccccc4[nH]3)c3ccccc3)nc2F)CC1` [Compound 598, (2S,4R)-4-fluoro-N-[(S)-[6-fluoro-5-(1-methylcyclopropyl)pyridin-2-yl](phenyl)methyl]-1-[2-(1H-indol-2-yl)acetyl]pyrrolidine-2-carboxamide] was run?
Answer: The IC50 was 2180 nM.

Question: What about the IC50 [2] of the same compound?
Answer: Its IC50 is 153 nM.

Question: Which IC50 ([1]; HeLa, 24 h) does the source give for `CC(C)(C)OC(=O)n1c(CC(=O)N2C[C@H](F)C[C@H]2C(=O)N[C@@H](c2ccccc2)c2ccc(C3(C)CC3)c(F)n2)cc2ccccc21` [Compound 601, tert-butyl 2-{2-[(2S,4R)-4-fluoro-2-{[(S)-[6-fluoro-5-(1-methylcyclopropyl)pyridin-2-yl](phenyl)methyl]carbamoyl}pyrrolidin-1-yl]-2-oxoethyl}-1H-indole-1-carboxylate] here?
Answer: The IC50 was 710 nM.

Question: And the IC50 [2]?
Answer: The IC50 was 34 nM.

Question: Which IC50 [1] does the source give for `COC(=O)NCc1cccc([C@H](NC(=O)[C@@H]2C[C@@H](F)CN2C(=O)Cc2cnn[nH]2)c2ccc(C(C)C)c(F)n2)c1` [Compound 638, methyl (3-((S)-((2S,4R)-1-(2-(1H-1,2,3-triazol-5-yl)acetyl)-4-fluoropyrrolidine-2-carboxamido)(6-fluoro-5-isopropylpyridin-2-yl)methyl)benzyl)carbamate] here?
Answer: Its IC50 is over 23400 nM.

Question: What about the IC50 [2] of the same compound?
Answer: Its IC50 is 399 nM.

Question: How did the IC50 ([1]; HeLa, 24 h) turn out when `CC(=O)NCc1cccc([C@H](NC(=O)[C@@H]2C[C@@H](F)CN2C(=O)Cc2cnn[nH]2)c2ccc(C(C)C)c(F)n2)c1` [Compound 655, (2S,4R)-N-[(S)-[3-(acetamidomethyl)phenyl][6-fluoro-5-(propan-2-yl)pyridin-2-yl]methyl]-4-fluoro-1-[2-(1H-1,2,3-triazol-5-yl)acetyl]pyrrolidine-2-carboxamide] was run?
Answer: Its IC50 is over 30000 nM.

Question: And the IC50 [2]?
Answer: The IC50 was 1010 nM.

Question: Which results are given for `CNC(=O)NCc1cccc([C@H](NC(=O)[C@@H]2C[C@@H](F)CN2C(=O)Cc2cnn[nH]2)c2ccc(C(C)C)c(F)n2)c1` [Compound 656, (2S,4R)-4-fluoro-N-[(S)-[6-fluoro-5-(propan-2-yl)pyridin-2-yl](3-{[(methylcarbamoyl)amino]methyl}phenyl)methyl]-1-[2-(1H-1,2,3-triazol-5-yl)acetyl]pyrrolidine-2-carboxamide]?
Answer: IC50 ([1]; HeLa, 24 h): 10800 nM; IC50 [2]: 1300 nM

Question: What does the source list for `CC1(c2ccc([C@H](NC(=O)[C@@H]3C[C@@H](F)CN3C(=O)Cc3cnn[nH]3)c3ccccc3)cc2F)CCC1` [Compound 684, (2S,4R)-4-fluoro-N-[(R)-[3-fluoro-4-(1-methylcyclobutyl)phenyl](phenyl)methyl]-1-[2-(1H-1,2,3-triazol-5-yl)acetyl]pyrrolidine-2-carboxamide]?
Answer: IC50 ([1]; HeLa, 24 h): 13800 nM; IC50 [2]: 1330 nM

Question: What does the source list for `CC(C)c1ccc([C@H](NC(=O)[C@@H]2C[C@@H](F)CN2C(=O)Cc2cnn[nH]2)c2cccc(-c3ccn[nH]3)c2)nc1F` [Compound 687, (2S,4R)-1-(2-(1H-1,2,3-triazol-5-yl)acetyl)-N—((R)-(3-(1H-pyrazol-5-yl)phenyl)(6-fluoro-5-isopropylpyridin-2-yl)methyl)-4-fluoropyrrolidine-2-carboxamide]?
Answer: IC50 ([1]; HeLa, 24 h): > 30000 nM; IC50 [2]: 3820 nM

Question: For `COc1nc(CC(=O)N2C[C@H](F)C[C@H]2C(=O)N[C@@H](c2ccccc2)c2ccc(C(C)C)cn2)nn1C` [Compound 712, (2S,4R)-4-fluoro-1-[2-(5-methoxy-1-methyl-1H-1,2,4-triazol-3-yl)acetyl]-N-[(S)-phenyl[5-(propan-2-yl)pyridin-2-yl]methyl]pyrrolidine-2-carboxamide], which IC50 ([1]; HeLa, 24 h) is on record?
Answer: The IC50 was 330 nM.

Question: And the IC50 [2]?
Answer: Its IC50 is 15 nM.

Question: Which results are given for `CCN(CC)c1cnnn1CC(=O)N1C[C@H](F)C[C@H]1C(=O)N[C@@H](c1ccccc1)c1ccc(C(C)C)cn1` [Compound 713, (2S,4R)-1-{2-[5-(diethylamino)-1H-1,2,3-triazol-1-yl]acetyl}-4-fluoro-N-[(S)-phenyl[5-(propan-2-yl)pyridin-2-yl]methyl]pyrrolidine-2-carboxamide]?
Answer: IC50 ([1]; HeLa, 24 h): 860 nM; IC50 [2]: 74 nM

Question: `CC(C)c1ccc([C@@H](NC(=O)[C@@H]2C[C@@H](F)CN2C(=O)Cn2nncc2N2CC(F)(F)C2)c2ccccc2)nc1` [Compound 714, (2S,4R)-1-{2-[5-(3,3-difluoroazetidin-1-yl)-1H-1,2,3-triazol-1-yl]acetyl}-4-fluoro-N-[(S)-phenyl[5-(propan-2-yl)pyridin-2-yl]methyl]pyrrolidine-2-carboxamide] was tested. Which IC50 ([1]; HeLa, 24 h) did it give?
Answer: The IC50 was 1390 nM.

Question: What about the IC50 [2] of the same compound?
Answer: Its IC50 is 45 nM.

Question: For `CN(C)c1cnn(CC(=O)N2C[C@H](F)C[C@H]2C(=O)N[C@H](c2ccccc2)c2ccc(C3CC3)c(F)n2)n1` [Compound 717, (2S,4R)-N-[(R)-(5-cyclopropyl-6-fluoropyridin-2-yl)(phenyl)methyl]-1-{2-[4-(dimethylamino)-2H-1,2,3-triazol-2-yl]acetyl}-4-fluoropyrrolidine-2-carboxamide], which IC50 ([1]; HeLa, 24 h) is on record?
Answer: Its IC50 is over 25800 nM.

Question: And the IC50 [2]?
Answer: The IC50 was 1480 nM.

Question: `O=C(N[C@H](c1ccccc1)c1ccc(C2CC2)c(F)n1)[C@@H]1C[C@@H](F)CN1C(=O)Cc1cccn2c(=O)[nH]nc12` [Compound 718, (2S,4R)-N-[(R)-(5-cyclopropyl-6-fluoropyridin-2-yl)(phenyl)methyl]-4-fluoro-1-(2-{3-oxo-2H,3H-[1,2,4]triazolo[4,3-a]pyridin-8-yl}acetyl)pyrrolidine-2-carboxamide] was tested. Which IC50 ([1]; HeLa, 24 h) did it give?
Answer: The IC50 was over 30000 nM.

Question: And the IC50 [2]?
Answer: Its IC50 is 2620 nM.

Question: For `Cc1nccc(NCC(=O)N2C[C@H](F)C[C@H]2C(=O)N[C@H](c2ccccc2)c2ccc(C3CC3)c(F)n2)n1` [Compound 720, (2S,4R)-N-[(R)-(5-cyclopropyl-6-fluoropyridin-2-yl)(phenyl)methyl]-4-fluoro-1-{2-[(2-methylpyrimidin-4-yl)amino]acetyl}pyrrolidine-2-carboxamide], which IC50 ([1]; HeLa, 24 h) is on record?
Answer: Its IC50 is over 30000 nM.

Question: What about the IC50 [2] of the same compound?
Answer: Its IC50 is 2450 nM.

Question: Which IC50 ([1]; HeLa, 24 h) does the source give for `O=C(N[C@@H](c1ccccc1)c1ccc(C2CC2)c(F)n1)[C@@H]1C[C@@H](F)CN1C(=O)Cc1cnn[nH]1` [Compound 721, (2S,4R)-N-[(S)-(5-cyclopropyl-6-fluoropyridin-2-yl)(phenyl)methyl]-4-fluoro-1-[2-(1H-1,2,3-triazol-5-yl)acetyl]pyrrolidine-2-carboxamide] here?
Answer: Its IC50 is 1090 nM.

Question: What about the IC50 [2] of the same compound?
Answer: Its IC50 is 79 nM.

Question: What does the source list for `O=C(N[C@@H](c1ccccc1)c1ccc(C2CC2)c(F)n1)[C@@H]1C[C@@H](F)CN1C(=O)Cn1ccc(C(F)(F)F)n1` [Compound 730, (2S,4R)-N-[(S)-(5-cyclopropyl-6-fluoropyridin-2-yl)(phenyl)methyl]-4-fluoro-1-{2-[3-(trifluoromethyl)-1H-pyrazol-1-yl]acetyl}pyrrolidine-2-carboxamide]?
Answer: IC50 ([1]; HeLa, 24 h): 760 nM; IC50 [2]: 37 nM

Question: How did the IC50 ([1]; HeLa, 24 h) turn out when `CCOc1ncc(CC(=O)N2C[C@H](F)C[C@H]2C(=O)N[C@@H](c2ccccc2)c2ccc(C3CC3)c(F)n2)cc1C` [Compound 737, (2S,4R)-N-[(S)-(5-cyclopropyl-6-fluoropyridin-2-yl)(phenyl)methyl]-1-[2-(6-ethoxy-5-methylpyridin-3-yl)acetyl]-4-fluoropyrrolidine-2-carboxamide] was run?
Answer: Its IC50 is 550 nM.

Question: What about the IC50 [2] of the same compound?
Answer: The IC50 was 37 nM.

Question: What does the source list for `O=C(N[C@@H](c1ccccc1)c1ccc(C2CC2)c(F)n1)[C@@H]1C[C@@H](F)CN1C(=O)Cc1nc(C(F)(F)F)co1` [Compound 738, (2S,4R)-N-[(S)-(5-cyclopropyl-6-fluoropyridin-2-yl)(phenyl)methyl]-4-fluoro-1-{2-[4-(trifluoromethyl)-1,3-oxazol-2-yl]acetyl}pyrrolidine-2-carboxamide]?
Answer: IC50 ([1]; HeLa, 24 h): 1210 nM; IC50 [2]: 105 nM

Question: With `CCn1cc(CC(=O)N2C[C@H](F)C[C@H]2C(=O)N[C@@H](c2ccccc2)c2ccc(C3CC3)c(F)n2)cc(C)c1=O` [Compound 739, (2S,4R)-N-[(S)-(5-cyclopropyl-6-fluoropyridin-2-yl)(phenyl)methyl]-1-[2-(1-ethyl-5-methyl-6-oxo-1,6-dihydropyridin-3-yl)acetyl]-4-fluoropyrrolidine-2-carboxamide] as the compound, how does the IC50 ([1]; HeLa, 24 h) read?
Answer: The IC50 was 340 nM.

Question: What about the IC50 [2] of the same compound?
Answer: Its IC50 is 17 nM.
